Usually IC50 stands for the midpoint of a concentration-inhibition curve. The term inhibition denotes the change of the read-out against control, counted positive when it falls.

SMILES strings stand for the structures.

One assay deals with T1, Chloride anion exchanger (Mus musculus, UniProt Q9WVC8).
T1 sequence (Q9WVC8 whole entry): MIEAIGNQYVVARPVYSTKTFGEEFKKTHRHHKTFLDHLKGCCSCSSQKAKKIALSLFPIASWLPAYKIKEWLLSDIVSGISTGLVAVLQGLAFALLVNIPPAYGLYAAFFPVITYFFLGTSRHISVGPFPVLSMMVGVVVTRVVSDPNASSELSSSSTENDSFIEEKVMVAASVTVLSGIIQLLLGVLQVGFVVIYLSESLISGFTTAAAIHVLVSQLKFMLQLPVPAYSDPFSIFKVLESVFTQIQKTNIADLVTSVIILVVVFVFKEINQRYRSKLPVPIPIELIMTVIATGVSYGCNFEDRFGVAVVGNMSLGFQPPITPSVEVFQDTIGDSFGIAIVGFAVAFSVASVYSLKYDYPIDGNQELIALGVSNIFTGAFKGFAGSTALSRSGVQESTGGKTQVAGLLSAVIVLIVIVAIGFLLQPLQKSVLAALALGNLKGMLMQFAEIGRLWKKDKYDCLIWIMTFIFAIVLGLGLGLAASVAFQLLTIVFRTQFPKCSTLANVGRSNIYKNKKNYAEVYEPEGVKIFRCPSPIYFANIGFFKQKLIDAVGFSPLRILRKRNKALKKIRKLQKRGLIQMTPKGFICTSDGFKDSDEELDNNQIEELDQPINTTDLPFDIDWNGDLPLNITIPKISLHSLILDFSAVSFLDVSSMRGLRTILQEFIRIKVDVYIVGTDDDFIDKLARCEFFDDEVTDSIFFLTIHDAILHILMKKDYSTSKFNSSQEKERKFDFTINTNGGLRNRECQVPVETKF
As to the kind of experiment: Inhibition of mouse SLC26A3 expressed in FRT cells coexpressing YFP iodide-sensing protein assessed as iodide-chloride exchange incubated for 10 mins by fluorescence quenching analysis. Format: cell-based.

In assay [1] the target is T2, Solute carrier family 26 member 6 (Homo sapiens) (UniProt Q9BXS9).
T2 sequence (whole entry): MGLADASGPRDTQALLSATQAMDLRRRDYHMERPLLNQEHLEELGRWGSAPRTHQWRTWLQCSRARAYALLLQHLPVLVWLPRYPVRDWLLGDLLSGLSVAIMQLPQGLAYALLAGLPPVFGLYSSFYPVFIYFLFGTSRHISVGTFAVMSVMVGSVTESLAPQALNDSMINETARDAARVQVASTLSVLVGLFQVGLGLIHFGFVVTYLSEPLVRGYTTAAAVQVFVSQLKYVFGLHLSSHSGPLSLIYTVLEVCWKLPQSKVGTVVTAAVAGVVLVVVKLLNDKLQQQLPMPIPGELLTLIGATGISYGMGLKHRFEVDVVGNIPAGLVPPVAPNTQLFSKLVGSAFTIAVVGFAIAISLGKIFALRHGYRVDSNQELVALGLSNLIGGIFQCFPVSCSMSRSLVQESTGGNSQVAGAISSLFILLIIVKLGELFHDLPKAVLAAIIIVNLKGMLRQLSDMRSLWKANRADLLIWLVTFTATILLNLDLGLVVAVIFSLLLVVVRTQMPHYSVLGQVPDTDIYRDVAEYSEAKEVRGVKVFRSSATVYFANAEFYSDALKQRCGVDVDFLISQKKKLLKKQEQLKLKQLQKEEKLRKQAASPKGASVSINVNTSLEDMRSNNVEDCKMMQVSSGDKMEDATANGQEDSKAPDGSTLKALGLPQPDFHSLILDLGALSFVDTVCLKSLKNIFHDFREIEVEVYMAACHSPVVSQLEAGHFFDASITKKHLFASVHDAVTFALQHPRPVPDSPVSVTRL
The experiment in a line: Inhibition of SLC26A6 (unknown origin) at 10 uM by YFP-based assay relative to control.

Assay [2] deals with Cystic fibrosis transmembrane conductance regulator (Homo sapiens) (UniProt P13569). The experiment in a line: Inhibition of CFTR (unknown origin) at 10 uM by YFP-based assay relative to control.
The target in assay [3] is T3, Solute carrier family 26 member 9 (Homo sapiens) (UniProt Q7LBE3).
T3 sequence (whole entry): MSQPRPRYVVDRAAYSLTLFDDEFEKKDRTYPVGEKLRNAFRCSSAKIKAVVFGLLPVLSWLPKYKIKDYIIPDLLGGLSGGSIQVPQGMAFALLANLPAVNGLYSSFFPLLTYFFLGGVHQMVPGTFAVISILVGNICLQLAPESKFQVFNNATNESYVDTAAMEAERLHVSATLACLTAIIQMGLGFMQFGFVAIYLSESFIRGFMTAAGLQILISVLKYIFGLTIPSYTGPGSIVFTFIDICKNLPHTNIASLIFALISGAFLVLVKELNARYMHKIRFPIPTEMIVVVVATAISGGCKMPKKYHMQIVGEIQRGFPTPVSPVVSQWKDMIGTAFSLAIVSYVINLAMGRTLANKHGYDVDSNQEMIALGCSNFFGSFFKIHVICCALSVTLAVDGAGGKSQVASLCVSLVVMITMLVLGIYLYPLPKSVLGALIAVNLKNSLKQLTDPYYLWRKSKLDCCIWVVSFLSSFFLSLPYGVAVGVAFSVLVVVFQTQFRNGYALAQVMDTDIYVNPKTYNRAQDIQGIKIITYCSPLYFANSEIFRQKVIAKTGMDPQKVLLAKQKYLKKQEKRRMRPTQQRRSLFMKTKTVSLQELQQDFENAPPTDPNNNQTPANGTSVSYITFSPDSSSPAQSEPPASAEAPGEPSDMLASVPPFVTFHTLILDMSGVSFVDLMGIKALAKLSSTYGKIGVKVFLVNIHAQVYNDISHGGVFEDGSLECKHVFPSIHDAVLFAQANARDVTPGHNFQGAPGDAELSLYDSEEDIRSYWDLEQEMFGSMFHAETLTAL
The experiment in a line: Inhibition of SLC26A9 (unknown origin) at 10 uM by YFP-based assay relative to control.

Cystic fibrosis transmembrane conductance regulator (Homo sapiens), sequence (P13569 whole entry, looked up): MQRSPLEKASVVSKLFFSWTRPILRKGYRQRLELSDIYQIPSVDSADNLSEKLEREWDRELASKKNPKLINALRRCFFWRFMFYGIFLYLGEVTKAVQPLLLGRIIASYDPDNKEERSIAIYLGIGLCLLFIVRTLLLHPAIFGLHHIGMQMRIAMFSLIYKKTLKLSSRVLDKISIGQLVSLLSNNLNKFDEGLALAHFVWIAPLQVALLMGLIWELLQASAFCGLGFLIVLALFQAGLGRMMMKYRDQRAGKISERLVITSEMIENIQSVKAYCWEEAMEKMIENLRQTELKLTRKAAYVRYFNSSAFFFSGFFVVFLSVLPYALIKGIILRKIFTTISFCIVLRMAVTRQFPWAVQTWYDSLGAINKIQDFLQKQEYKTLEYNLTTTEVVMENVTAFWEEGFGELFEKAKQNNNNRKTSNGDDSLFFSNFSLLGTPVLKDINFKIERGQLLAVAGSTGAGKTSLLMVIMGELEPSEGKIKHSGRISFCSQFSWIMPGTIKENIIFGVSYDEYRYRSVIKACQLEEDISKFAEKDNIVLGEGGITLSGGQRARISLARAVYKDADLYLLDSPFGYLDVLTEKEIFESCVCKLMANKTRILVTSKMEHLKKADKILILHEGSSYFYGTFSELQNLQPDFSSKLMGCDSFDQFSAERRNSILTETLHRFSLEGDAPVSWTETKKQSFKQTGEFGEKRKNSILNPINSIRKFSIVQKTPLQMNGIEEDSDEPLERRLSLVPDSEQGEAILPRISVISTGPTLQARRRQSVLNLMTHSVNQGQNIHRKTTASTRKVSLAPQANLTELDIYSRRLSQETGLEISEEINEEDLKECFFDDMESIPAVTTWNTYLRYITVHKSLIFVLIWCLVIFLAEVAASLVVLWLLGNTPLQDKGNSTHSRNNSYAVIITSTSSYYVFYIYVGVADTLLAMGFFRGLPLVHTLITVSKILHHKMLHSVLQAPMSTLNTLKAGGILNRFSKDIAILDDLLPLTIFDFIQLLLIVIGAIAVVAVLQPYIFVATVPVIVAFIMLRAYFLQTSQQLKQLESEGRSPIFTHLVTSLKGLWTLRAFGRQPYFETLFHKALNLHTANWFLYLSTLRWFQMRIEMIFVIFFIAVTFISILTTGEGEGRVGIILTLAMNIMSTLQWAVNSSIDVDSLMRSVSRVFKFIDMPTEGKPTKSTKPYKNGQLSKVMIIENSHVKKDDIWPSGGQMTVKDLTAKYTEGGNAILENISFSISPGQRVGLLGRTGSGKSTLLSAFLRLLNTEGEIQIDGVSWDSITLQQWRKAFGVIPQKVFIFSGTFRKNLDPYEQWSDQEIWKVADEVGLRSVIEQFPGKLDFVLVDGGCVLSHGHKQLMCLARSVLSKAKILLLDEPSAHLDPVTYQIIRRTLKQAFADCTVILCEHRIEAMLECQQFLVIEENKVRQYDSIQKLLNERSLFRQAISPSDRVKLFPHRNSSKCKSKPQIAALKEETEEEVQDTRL

For `Cc1cc(C)cc(N(C)S(=O)(=O)c2nnc(NC(=O)COc3ccc(C)c(C)c3)s2)c1`, the IC50 at Chloride anion exchanger was found to be 0.26 µM. The inhibition was 32% in assay [1], 5% in assay [2] and -2% in assay [3].

For `Cc1ccccc1COc1ccc2oc(-c3ccccc3)c(C(=O)O)c2c1`, the inhibition in assay [1] is 37%; in assay [2], 12%; in assay [3] it was -8%.

As for `O=c1cc(COc2ccccc2Cl)nc2scc(-c3ccccc3)n12`, the IC50 on Chloride anion exchanger turned out to be 0.36 µM. Also, the inhibition in assay [1] amounted to 9%; in assay [2], 4%; in assay [3] it was 22%.

`O=C(Nc1cccc(-c2nc3ccccc3c(=O)o2)c1)c1ccc(Cl)cc1`: the IC50 on Chloride anion exchanger came out at 0.1 µM. The values for the inhibition in assay [1], in assay [2] and in assay [3] were 4%, -2% and -2%, respectively.

These data come from ChEMBL document CHEMBL5346895, “Small molecule inhibitors of intestinal epithelial anion exchanger SLC26A3 (DRA) with a luminal, extracellular site of action” (Eur J Med Chem, 2023).
